Reference: article PMC6768916, “Population pharmacokinetics of fedratinib in patients with myelofibrosis, polycythemia vera, and essential thrombocythemia” (Cancer Chemotherapy and Pharmacology, 2019)
Entries after “also recorded” stand apart in the source; their conditions may differ. Like-named read-outs stand apart in the source and are kept apart here.

Key:
[1] = population pharmacokinetic model in patients with MF, PV or ET; assay type: in vivo, human
Method: The population PK analysis utilized data from one phase 1 study (TED12037 [NCT00631462]), four phase 2 studies (ARD11936 [NCT01420770], ARD12042 [NCT01420783], ARD12181 [NCT01523171], ARD12888 [NCT01692366]) and one phase 3 study (EFC12153 [NCT01437787]). Study design, dosing regimen, and PK sampling information are presented in Supplementary Table 1. These studies were conducted in accordance with the Declaration of Helsinki and the International Council for Harmonisation Guideline for Good Clinical Practice (ICH E6). Written informed consent was obtained from all subjects.
Concentrations of fedratinib in plasma were determined using a validated high-performance liquid chromatography with tandem mass spectrometric detection, with good accuracy (− 6.75–8.8%) and precision (4.84–13.11%). The lower limit of quantification was 1 ng/mL, and the calibration range was 1–1000 ng/mL.
Population PK analyses were conducted using a nonlinear mixed-effect modeling approach, as implemented in the NONMEM software version 7.3.0 (ICON Development Solutions, Ellicott City, MD). Plotting of NONMEM outputs was conducted using the R software (version 3.4.1) and RStudio (version 1.1.456, Boston, MA).
In the development of the structural model, one- to three-compartment models with first-order elimination and different absorption models including first-order absorption with and without lag time, zero-order absorption and transit compartment model were tested to fit the plasma concentration-time data. First-order conditional estimation (FOCE) with interaction method was used for parameter estimation, with natural logarithm-transformed plasma fedratinib concentration data. The inter-subject variability was modeled assuming a log-normal distribution. Residual variability was modeled using an additive model. The model selection was based on the objective function value (OFV) using the log-likelihood ratio test, the goodness of fit criteria and visual predictive check (VPC). Covariate model building was carried out using a stepwise procedure, with significance levels set to 0.01 and 0.001 for the forward inclusion and backward elimination steps, respectively. Missing baseline covariates were imputed as the median value in the study population.
Stability of the final PK parameter estimates and the 95% confidence interval (CI) for the parameters were evaluated using the nonparametric bootstrap approach. With this approach, 500 datasets of size equal to the original dataset were generated by random resampling with replacement from the original dataset. The final model was fit to each of the 500 bootstrap datasets and all the model parameters were estimated for each dataset. The median and nonparametric 95% CI (2.5–97.5 percentiles) of the 500 estimates were calculated for each parameter. The ability of the final population PK model to describe the observed concentration data was evaluated by simulating 200 datasets having the same doses, dosing schedules and sampling times as the original dataset and by performing prediction-corrected VPC [18]. The 5th, 50th and 95th prediction percentiles of the fedratinib concentrations at each binned time point were computed for each simulated trial. Thereafter, the nonparametric 90% CI of the 5th, 50th and 95th prediction percentiles at each binned time point were calculated for the 200 simulated trials.

[2] = test system: wild-type JAK2; set-up: method as in PMID 18394554; conditions: cited from earlier work
[3] = human, in vivo; cited from earlier work
[4] = test system: FLT3; set-up: method as in PMID 18394554; conditions: cited from earlier work
[5] = cited from earlier work
[6] = test system: activated mutant JAK2 V617F; set-up: method as in PMID 18394554; conditions: cited from earlier work
[7] = test system: JAK2 V617F-driven aberrant human PV progenitor erythroid differentiation; set-up: method as in PMID 18394555; conditions: cited from earlier work
[8] = final model, inter-individual variability

increase in exposure (steady-state AUC) with moderate renal impairment vs normal renal function ([1]; 30 ≤ CLcr < 60 mL/min vs CLcr ≥ 90 mL/min): 37%
increase in exposure (steady-state AUC) with mild renal impairment vs normal renal function ([1]; 60 ≤ CLcr < 90 mL/min vs CLcr ≥ 90 mL/min): 10%
apparent clearance of a typical PV patient ([1]; CLcr = 78.5 mL/min): 20.0 L/h
increase in typical AUC with severe renal impairment vs normal renal function ([1]; MF patients, severe renal impairment, N = 3): 59%
typical value of CL/F, base model ([1]; base model): 13.6 L/h
typical value of V2/F, base model ([1]; base model): 340 L
magnitude of changes in V2/F by dose ([1]; covariate analysis): less than 30%
CL/F higher in PV patients compared to MF or ET patients ([1]; final model): 54%
CL/F of a typical MF patient ([1]; final model): 13.0 L/h
TVCL/F, parameter estimate ([1]; final model): 13.0 L/h
TVKa, parameter estimate ([1]; final model): 1.57 h⁻¹
TVQ/F, parameter estimate ([1]; final model): 45.2 L/h
TVV2/F, parameter estimate ([1]; final model): 311 L
TVV3/F, parameter estimate ([1]; final model): 1460 L
V2/F higher in PV patients compared to MF or ET patients ([1]; final model): 87%
fold higher CL/F in PV patients compared to MF or ET patients ([1]; final model): 1.54 fold
fold higher V2/F in PV patients compared to MF or ET patients ([1]; final model): 1.87 fold
TVCL/F, bootstrap median (95% CI) ([1]; final model, 484 of 500 bootstrap replicates): 13.1 (12.4 to 13.9) L/h
TVALAG1, parameter estimate ([1]; final model, absorption lag time): 0.265 h
COVCL/F-V2/F, bootstrap median (95% CI) ([1]; final model, bootstrap): 0.193 (0.145 to 0.249)
PV on V2/F, bootstrap median (95% CI) ([1]; final model, bootstrap): 1.85 (1.40 to 2.42)
TVALAG1, bootstrap median (95% CI) ([1]; final model, bootstrap): 0.265 (0.264 to 0.321) h
TVKa, bootstrap median (95% CI) ([1]; final model, bootstrap): 1.64 (1.34 to 2.05) h^−1
TVQ/F, bootstrap median (95% CI) ([1]; final model, bootstrap): 45.2 (38.5 to 52.9) L/h
TVV2/F, bootstrap median (95% CI) ([1]; final model, bootstrap): 313 (282 to 343) L
TVV3/F, bootstrap median (95% CI) ([1]; final model, bootstrap): 1470 (1190 to 1790) L
Weight on V2/F, bootstrap median (95% CI) ([1]; final model, bootstrap): 0.733 (0.383 to 1.10)
σ^2 (Log additive), bootstrap median (95% CI) ([1]; final model, bootstrap): 0.194 (0.159 to 0.264)
ω^2, Ka, bootstrap median (95% CI) ([1]; final model, bootstrap): 1.09 (0.728 to 1.54)
ω^2, V2/F, bootstrap median (95% CI) ([1]; final model, bootstrap): 0.371 (0.247 to 0.510)
COVCL/F-V2/F, parameter estimate ([1]; final model, covariance): 0.197
PV on V2/F, parameter estimate ([1]; final model, covariate factor if PV): 1.87
Weight on V2/F, parameter estimate ([1]; final model, exponent of (Weight/70.1)): 0.727
ω^2, Ka, parameter estimate [1, 8]: 1.07
ω^2, V2/F, parameter estimate [1, 8]: 0.383
σ^2 (Log additive), parameter estimate ([1]; final model, residual variability): 0.201
SMILES: Cc1cnc(Nc2ccc(OCCN3CCCC3)cc2)nc1Nc1cccc(S(=O)(=O)NC(C)(C)C)c1 [fedratinib, Fedratinib]
magnitude of changes in V2/F by body weight ([1]; body weight 39.5 to 135 kg): less than 30%
linearity of PK with dose ([1]; doses of 200 mg and above): linear, time-invariant PK; also recorded: increased linearly
effect of age, body weight, sex, race and liver function on exposure/PK ([1]; population PK covariate analysis): No clinically meaningful effect
selectivity for JAK2 over JAK1, JAK3 and TYK2 [2]: selective for JAK2 over JAK1, JAK3 and TYK2
IC50 ([2]; wild-type JAK2): 3 nM
CL/F of healthy subjects [3]: 20.7 to 46.0 L/h
dose proportionality of exposure [3]: greater than dose-proportional increase
mean terminal half-life [3]: 62 to 78 h
IC50 [4]: 15 nM
dose proportionality of exposure ([5]; 300–500 mg at steady state): approximately dose-proportional
mean accumulation ratio ([5]; 300–500 mg once daily, steady state): 2.95–3.88
time to peak plasma concentration ([5]; human, in vivo, po): 0.5 to 4 h
dose proportionality of exposure ([5]; human, in vivo): greater than dose-proportional increase
time to steady state of plasma levels ([5]; once daily dosing): ≤ 15 days
IC50 [6]: 3 nM
inhibition of JAK2 V617F-driven aberrant human PV progenitor erythroid differentiation [7]: significantly inhibits
